According to ChEMBL document CHEMBL2203238, “Hit to Lead optimization of a novel class of squarate-containing polo-like kinases inhibitors” (Bioorg Med Chem Lett, 2012):
pKi: −log10 of the molar value.

What was measured:
[1] = Cmax in mouse at 50 mg/kg, po measured at 1 hr; assay type: ADME, organism-based; parameters: dose 50 mg/kg, route oral; details: in vivo
[2] = Half life in mouse, iv; assay type: ADME, organism-based; details: in vivo
[3] = Oral bioavailability in mouse; assay type: ADME, organism-based; details: in vivo
[4] = target: Mitogen-activated protein kinase 13 (Homo sapiens, UniProt O15264); test: Inhibition of recombinant P38delta after 1 hr by scintillation counter analysis in presence of gamma-[33P]ATP
[5] = target: Non-receptor tyrosine-protein kinase TYK2 (Homo sapiens, UniProt P29597); test: Inhibition of recombinant TYK2 after 1 hr by scintillation counter analysis in presence of gamma-[33P]ATP
Sequence of Non-receptor tyrosine-protein kinase TYK2 (P29597 whole entry): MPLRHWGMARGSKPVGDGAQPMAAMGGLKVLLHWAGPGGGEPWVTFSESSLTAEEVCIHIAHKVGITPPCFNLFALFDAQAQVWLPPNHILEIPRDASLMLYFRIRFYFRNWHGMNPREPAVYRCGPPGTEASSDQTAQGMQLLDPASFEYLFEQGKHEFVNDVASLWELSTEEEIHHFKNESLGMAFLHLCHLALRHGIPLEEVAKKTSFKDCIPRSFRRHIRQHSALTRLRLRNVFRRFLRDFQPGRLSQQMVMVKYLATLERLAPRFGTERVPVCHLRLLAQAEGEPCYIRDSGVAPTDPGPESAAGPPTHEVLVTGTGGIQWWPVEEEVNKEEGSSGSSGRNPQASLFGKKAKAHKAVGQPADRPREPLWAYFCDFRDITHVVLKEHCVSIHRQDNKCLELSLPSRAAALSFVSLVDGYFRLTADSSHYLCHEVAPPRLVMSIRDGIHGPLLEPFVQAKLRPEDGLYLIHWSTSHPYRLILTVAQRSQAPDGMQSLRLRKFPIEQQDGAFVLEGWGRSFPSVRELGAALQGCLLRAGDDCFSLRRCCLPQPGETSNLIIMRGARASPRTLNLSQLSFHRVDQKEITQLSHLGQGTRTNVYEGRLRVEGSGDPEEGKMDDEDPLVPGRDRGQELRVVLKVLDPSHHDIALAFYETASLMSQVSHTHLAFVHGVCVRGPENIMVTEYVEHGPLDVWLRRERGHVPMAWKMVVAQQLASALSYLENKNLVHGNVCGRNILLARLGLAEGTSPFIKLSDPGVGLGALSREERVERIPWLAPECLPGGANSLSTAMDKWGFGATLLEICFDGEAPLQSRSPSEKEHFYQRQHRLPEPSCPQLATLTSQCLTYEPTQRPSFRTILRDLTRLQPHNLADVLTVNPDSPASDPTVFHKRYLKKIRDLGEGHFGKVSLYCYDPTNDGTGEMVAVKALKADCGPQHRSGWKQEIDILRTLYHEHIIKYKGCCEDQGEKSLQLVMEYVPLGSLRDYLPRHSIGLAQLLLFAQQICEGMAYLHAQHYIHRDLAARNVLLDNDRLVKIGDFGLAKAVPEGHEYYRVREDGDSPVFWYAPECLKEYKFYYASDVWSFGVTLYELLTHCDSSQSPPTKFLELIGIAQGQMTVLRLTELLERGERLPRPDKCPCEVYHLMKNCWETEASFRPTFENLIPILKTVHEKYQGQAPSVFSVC

[6] = target: Rho-associated protein kinase 2 (Homo sapiens, UniProt O75116); test: Inhibition of recombinant ROCK2 after 1 hr by scintillation counter analysis in presence of gamma-[33P]ATP
[7] = target: Serine/threonine-protein kinase D2 (Homo sapiens, UniProt Q9BZL6); test: Inhibition of recombinant PKD2 after 1 hr by scintillation counter analysis in presence of gamma-[33P]ATP
[8] = Inhibition of recombinant PKA after 1 hr by scintillation counter analysis in presence of gamma-[33P]ATP
[9] = target: 3-phosphoinositide-dependent protein kinase 1 (Homo sapiens, UniProt O15530); test: Inhibition of recombinant PDK1 after 1 hr by scintillation counter analysis in presence of gamma-[33P]ATP
[10] = target: Serine/threonine-protein kinase PAK 1 (Homo sapiens, UniProt Q13153); test: Inhibition of recombinant PAK1 after 1 hr by scintillation counter analysis in presence of gamma-[33P]ATP
Sequence of Serine/threonine-protein kinase PAK 1 (Q13153 whole entry): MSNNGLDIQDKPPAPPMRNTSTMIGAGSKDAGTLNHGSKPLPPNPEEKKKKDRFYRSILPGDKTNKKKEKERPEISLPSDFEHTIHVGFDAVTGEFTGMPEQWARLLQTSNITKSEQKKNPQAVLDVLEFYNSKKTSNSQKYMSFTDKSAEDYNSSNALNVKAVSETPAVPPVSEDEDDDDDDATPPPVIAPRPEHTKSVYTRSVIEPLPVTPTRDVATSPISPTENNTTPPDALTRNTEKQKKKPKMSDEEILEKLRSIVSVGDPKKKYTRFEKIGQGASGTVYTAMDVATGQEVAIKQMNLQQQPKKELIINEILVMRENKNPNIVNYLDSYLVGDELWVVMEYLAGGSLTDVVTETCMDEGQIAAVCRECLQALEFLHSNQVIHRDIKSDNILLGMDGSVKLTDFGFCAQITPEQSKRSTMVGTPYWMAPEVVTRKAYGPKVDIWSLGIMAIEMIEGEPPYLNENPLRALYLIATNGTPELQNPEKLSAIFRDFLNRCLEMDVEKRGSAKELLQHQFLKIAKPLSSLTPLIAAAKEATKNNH

[11] = target: Tyrosine-protein kinase Lyn (Homo sapiens, UniProt P07948); test: Inhibition of recombinant LYN after 1 hr by scintillation counter analysis in presence of gamma-[33P]ATP
LIM domain kinase 1 = LIM domain kinase 1 (Homo sapiens, UniProt P53667); test: Inhibition of recombinant LIMK1 after 1 hr by scintillation counter analysis in presence of gamma-[33P]ATP
[12] = target: Mitogen-activated protein kinase 8 (Homo sapiens, UniProt P45983); test: Inhibition of recombinant JNK1A1 after 1 hr by scintillation counter analysis in presence of gamma-[33P]ATP
[13] = target: Tyrosine-protein kinase JAK3 (Homo sapiens, UniProt P52333); test: Inhibition of recombinant JAK3 after 1 hr by scintillation counter analysis in presence of gamma-[33P]ATP
[14] = target: Insulin-like growth factor 1 receptor (Homo sapiens, UniProt P08069); test: Inhibition of recombinant IGF1R after 1 hr by scintillation counter analysis in presence of gamma-[33P]ATP
[15] = target: Tyrosine-protein kinase Fyn (Homo sapiens, UniProt P06241); test: Inhibition of recombinant FYN after 1 hr by scintillation counter analysis in presence of gamma-[33P]ATP
Sequence of Tyrosine-protein kinase Fyn (P06241 whole entry): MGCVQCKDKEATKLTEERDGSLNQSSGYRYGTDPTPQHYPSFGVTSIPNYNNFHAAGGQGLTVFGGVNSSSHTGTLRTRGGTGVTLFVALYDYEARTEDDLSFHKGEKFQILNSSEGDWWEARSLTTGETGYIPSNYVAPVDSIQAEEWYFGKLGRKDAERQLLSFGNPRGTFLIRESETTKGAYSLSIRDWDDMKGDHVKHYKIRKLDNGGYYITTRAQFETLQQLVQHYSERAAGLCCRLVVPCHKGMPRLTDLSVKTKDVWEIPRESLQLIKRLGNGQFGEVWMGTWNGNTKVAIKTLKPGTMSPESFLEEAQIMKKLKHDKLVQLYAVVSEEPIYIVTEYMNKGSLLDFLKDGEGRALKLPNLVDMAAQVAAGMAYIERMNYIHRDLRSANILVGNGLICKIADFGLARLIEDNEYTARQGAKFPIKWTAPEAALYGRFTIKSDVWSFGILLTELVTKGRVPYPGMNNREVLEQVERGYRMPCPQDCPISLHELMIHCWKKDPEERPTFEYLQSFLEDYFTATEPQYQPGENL

[16] = target: Receptor-type tyrosine-protein kinase FLT3 (Homo sapiens, UniProt P36888); test: Inhibition of recombinant FLT3 after 1 hr by scintillation counter analysis in presence of gamma-[33P]ATP
[17] = target: Fibroblast growth factor receptor 3 (Homo sapiens, UniProt P22607); test: Inhibition of recombinant FGFR3 after 1 hr by scintillation counter analysis in presence of gamma-[33P]ATP
[18] = target: Mitogen-activated protein kinase 1 (Homo sapiens, UniProt P28482); test: Inhibition of recombinant ERK2 after 1 hr by scintillation counter analysis in presence of gamma-[33P]ATP
Sequence of Mitogen-activated protein kinase 1 (P28482 whole entry): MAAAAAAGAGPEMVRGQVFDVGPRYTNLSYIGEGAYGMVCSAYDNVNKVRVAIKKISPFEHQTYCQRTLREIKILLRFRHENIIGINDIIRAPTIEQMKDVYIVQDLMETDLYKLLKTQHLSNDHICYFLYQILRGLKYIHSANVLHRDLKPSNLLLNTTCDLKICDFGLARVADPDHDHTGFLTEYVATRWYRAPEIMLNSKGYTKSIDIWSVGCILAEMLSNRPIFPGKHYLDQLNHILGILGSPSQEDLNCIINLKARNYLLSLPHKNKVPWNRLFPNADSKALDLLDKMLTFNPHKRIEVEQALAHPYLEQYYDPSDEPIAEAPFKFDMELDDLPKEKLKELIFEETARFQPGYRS

[19] = target: Receptor tyrosine-protein kinase erbB-2 (Homo sapiens, UniProt P04626); test: Inhibition of recombinant ERBB2 after 1 hr by scintillation counter analysis in presence of gamma-[33P]ATP
[20] = target: Casein kinase I isoform delta (Homo sapiens, UniProt P48730); test: Inhibition of recombinant CK1delta after 1 hr by scintillation counter analysis in presence of gamma-[33P]ATP
[21] = target: Serine/threonine-protein kinase Chk2 (Homo sapiens, UniProt O96017); test: Inhibition of recombinant CHK2 after 1 hr by scintillation counter analysis in presence of gamma-[33P]ATP
Sequence of Serine/threonine-protein kinase Chk2 (O96017 whole entry): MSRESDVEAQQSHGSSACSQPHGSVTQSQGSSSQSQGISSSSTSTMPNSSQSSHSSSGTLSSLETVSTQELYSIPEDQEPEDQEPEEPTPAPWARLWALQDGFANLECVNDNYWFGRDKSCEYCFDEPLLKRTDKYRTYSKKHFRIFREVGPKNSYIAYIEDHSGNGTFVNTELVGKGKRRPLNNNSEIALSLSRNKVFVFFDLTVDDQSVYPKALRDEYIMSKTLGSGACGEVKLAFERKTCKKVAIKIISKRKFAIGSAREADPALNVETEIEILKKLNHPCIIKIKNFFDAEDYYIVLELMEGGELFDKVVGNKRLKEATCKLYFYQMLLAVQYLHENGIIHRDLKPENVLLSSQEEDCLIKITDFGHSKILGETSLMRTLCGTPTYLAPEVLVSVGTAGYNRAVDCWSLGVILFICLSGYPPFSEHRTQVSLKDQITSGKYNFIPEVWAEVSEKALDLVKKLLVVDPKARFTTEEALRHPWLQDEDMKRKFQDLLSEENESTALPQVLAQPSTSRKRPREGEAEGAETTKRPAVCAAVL

[22] = target: Tyrosine-protein kinase Blk (Homo sapiens, UniProt P51451); test: Inhibition of recombinant BLK after 1 hr by scintillation counter analysis in presence of gamma-[33P]ATP
Sequence of Tyrosine-protein kinase Blk (P51451 whole entry): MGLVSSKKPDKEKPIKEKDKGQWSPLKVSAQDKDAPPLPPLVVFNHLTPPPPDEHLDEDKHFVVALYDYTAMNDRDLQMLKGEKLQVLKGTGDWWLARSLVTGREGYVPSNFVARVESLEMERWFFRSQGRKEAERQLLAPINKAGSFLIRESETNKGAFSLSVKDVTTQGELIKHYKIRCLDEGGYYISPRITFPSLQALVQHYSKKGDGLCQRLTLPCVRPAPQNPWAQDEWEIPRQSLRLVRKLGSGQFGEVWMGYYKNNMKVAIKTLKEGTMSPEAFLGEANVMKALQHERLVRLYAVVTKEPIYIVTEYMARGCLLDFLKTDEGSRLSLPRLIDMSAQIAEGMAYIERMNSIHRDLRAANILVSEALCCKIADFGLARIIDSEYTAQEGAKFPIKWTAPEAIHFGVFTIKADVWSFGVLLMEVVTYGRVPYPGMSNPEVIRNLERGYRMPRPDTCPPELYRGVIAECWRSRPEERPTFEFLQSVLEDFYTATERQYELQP

[23] = target: RAC-gamma serine/threonine-protein kinase (Homo sapiens, UniProt Q9Y243); test: Inhibition of recombinant AKT3 after 1 hr by scintillation counter analysis in presence of gamma-[33P]ATP
Sequence of RAC-gamma serine/threonine-protein kinase (Q9Y243 whole entry): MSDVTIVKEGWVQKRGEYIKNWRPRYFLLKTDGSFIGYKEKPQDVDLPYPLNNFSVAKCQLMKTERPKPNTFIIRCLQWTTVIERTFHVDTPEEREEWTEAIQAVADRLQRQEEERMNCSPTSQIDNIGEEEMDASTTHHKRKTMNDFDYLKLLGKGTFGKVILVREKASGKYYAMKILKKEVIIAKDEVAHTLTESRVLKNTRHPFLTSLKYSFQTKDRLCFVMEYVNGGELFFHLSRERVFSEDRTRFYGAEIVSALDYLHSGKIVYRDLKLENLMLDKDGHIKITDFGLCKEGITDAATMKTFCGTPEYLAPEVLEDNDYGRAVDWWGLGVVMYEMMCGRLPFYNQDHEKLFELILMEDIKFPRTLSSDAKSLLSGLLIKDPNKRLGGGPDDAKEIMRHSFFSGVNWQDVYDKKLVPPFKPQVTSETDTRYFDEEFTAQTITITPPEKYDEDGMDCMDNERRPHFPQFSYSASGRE

[24] = target: Serine/threonine-protein kinase PLK4 (Homo sapiens, UniProt O00444); test: Inhibition of recombinant PLK4 after 1 hr by scintillation counter analysis in presence of gamma-[33P]ATP
[25] = target: Serine/threonine-protein kinase PLK3 (Homo sapiens, UniProt Q9H4B4); test: Inhibition of recombinant PLK3 after 1 hr by scintillation counter analysis in presence of gamma-[33P]ATP
Sequence of Serine/threonine-protein kinase PLK3 (Q9H4B4 whole entry): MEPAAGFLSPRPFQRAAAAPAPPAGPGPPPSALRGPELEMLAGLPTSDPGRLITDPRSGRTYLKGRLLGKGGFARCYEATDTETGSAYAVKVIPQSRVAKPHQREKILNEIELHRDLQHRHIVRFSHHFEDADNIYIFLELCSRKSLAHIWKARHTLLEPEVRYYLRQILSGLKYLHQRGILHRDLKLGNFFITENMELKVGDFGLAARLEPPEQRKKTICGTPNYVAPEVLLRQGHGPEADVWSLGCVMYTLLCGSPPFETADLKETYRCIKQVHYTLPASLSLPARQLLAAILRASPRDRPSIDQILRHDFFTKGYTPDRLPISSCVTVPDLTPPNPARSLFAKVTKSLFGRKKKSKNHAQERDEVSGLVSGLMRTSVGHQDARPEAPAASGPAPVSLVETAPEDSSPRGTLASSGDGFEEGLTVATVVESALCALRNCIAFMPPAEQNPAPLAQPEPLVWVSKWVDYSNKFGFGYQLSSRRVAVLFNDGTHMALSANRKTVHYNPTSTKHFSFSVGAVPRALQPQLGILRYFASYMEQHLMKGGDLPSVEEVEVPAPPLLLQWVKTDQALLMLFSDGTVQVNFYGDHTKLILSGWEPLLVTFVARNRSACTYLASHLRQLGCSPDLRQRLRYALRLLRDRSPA

[26] = target: Cell division control protein 42 homolog (Homo sapiens, UniProt P60953); test: Inhibition of recombinant CDC42 after 1 hr by scintillation counter analysis in presence of gamma-[33P]ATP
Sequence of Cell division control protein 42 homolog (P60953 whole entry): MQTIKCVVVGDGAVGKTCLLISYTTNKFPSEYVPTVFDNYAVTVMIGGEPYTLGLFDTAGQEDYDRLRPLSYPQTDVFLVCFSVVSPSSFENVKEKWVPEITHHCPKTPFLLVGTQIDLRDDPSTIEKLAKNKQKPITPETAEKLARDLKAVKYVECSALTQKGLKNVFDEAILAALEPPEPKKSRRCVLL

[27] = target: Serine/threonine-protein kinase PLK1 (Homo sapiens, UniProt P53350); test: Inhibition of recombinant GST-tagged PLK1 using biotin-ahx-AKMETTFYDDALNASFLPSEKKK-amide as substrate after 30 mins by scintillation counting analysis in presence of gamma-[33P]ATP
[28] = target: Serine/threonine-protein kinase Chk1 (Homo sapiens, UniProt O14757); test: Inhibition of recombinant CHK1 after 1 hr by scintillation counter analysis in presence of gamma-[33P]ATP

Cmax [1]: 5.4 µM
half-life [2]: 20.4 min
bioavailability [3]: 100%
pKi [4]: 5.23
pKi [5]: < 5.72
pKi [6]: 6.37
pKi [7]: 6.76
pKi [8]: < 5.12
pKi [9]: 7.15
pKi [10]: < 5.01
pKi [11]: < 5.80
pKi (LIM domain kinase 1): 6.71
pKi [12]: < 5.52
pKi [13]: < 5.77
pKi [14]: < 5.74
pKi [15]: 6.48
pKi [16]: 6.31
pKi [17]: 5.85
pKi [18]: 5.14
pKi [19]: < 5.85
pKi [20]: < 5.11
pKi [21]: 7.06
pKi [22]: < 5.85
pKi [23]: < 5.05
pKi [24]: 8.15
pKi [25]: 8.70
pKi [26]: < 5.36
pKi [27]: 8.30
pKi [28]: 6.78
SMILES: CC(C)(C)Nc1c(Nc2ccnc(Nc3ccc(-c4ccncc4)cc3)n2)c(=O)c1=O
